Test results reported in the supplement of paper PMC10307832.

Key:
Test in all cases: relative viability (nuclei count vs DMSO), 5 days (fraction); higher = more cells survive
Ruxolitinib + Lapatinib = compound: N#CC[C@H](C1CCCC1)n1cc(-c2ncnc3[nH]ccc23)cn1 [Ruxolitinib] + CS(=O)(=O)CCNCc1ccc(-c2ccc3ncnc(Nc4ccc(OCc5cccc(F)c5)c(Cl)c4)c3c2)o1 [Lapatinib] (partner 2 µM)
Summary of the method: (§1)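 After 5 days of treatment, lung cancer cells in 1536-well plates were fixed and stained in a single step (final 0.05% Triton X-100, 1% formaldehyde, 1 ug/ml Hoechst) and their nuclei counted on 4× images. Treatment had been applied by pin tool the day after seeding as one drug alone or as a fixed anchor-drug dose with five library-drug doses (not always all listed) in √10 steps. Relative viability is the nuclei count of treated wells divided by that of vehicle wells, and values are medians of duplicate plates.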

Vismodegib + Trametinib = compound: CS(=O)(=O)c1ccc(C(=O)Nc2ccc(Cl)c(-c3ccccn3)c2)c(Cl)c1 [Vismodegib] + CC(=O)Nc1cccc(-n2c(=O)n(C3CC3)c(=O)c3c(Nc4ccc(I)cc4F)n(C)c(=O)c(C)c32)c1 [Trametinib] (partner 0.02 µM)
Summary of the method: as §1

Vismodegib + Olaparib = compound: CS(=O)(=O)c1ccc(C(=O)Nc2ccc(Cl)c(-c3ccccn3)c2)c(Cl)c1 [Vismodegib] + O=C(c1cc(Cc2n[nH]c(=O)c3ccccc23)ccc1F)N1CCN(C(=O)C2CC2)CC1 [Olaparib] (partner 8 µM)
Summary of the method: as §1

VE-821 + Alpelisib = compound: CS(=O)(=O)c1ccc(-c2cnc(N)c(C(=O)Nc3ccccc3)n2)cc1 [VE-821] + Cc1nc(NC(=O)N2CCC[C@H]2C(N)=O)sc1-c1ccnc(C(C)(C)C(F)(F)F)c1 [Alpelisib] (partner 2 µM)
Summary of the method: as §1

Row | Cell Line | relative viability (Ruxolitinib + Lapatinib; first compound 0.08 µM) | relative viability (Ruxolitinib + Lapatinib; first compound 0.253 µM) | relative viability (Ruxolitinib + Lapatinib; first compound 0.8 µM) | relative viability (Ruxolitinib + Lapatinib; first compound 2.53 µM) | relative viability (Ruxolitinib + Lapatinib; first compound 8 µM) | relative viability (Vismodegib + Trametinib; first compound 0.08 µM) | relative viability (Vismodegib + Trametinib; first compound 0.253 µM) | relative viability (Vismodegib + Trametinib; first compound 0.8 µM) | relative viability (Vismodegib + Trametinib; first compound 2.53 µM) | relative viability (Vismodegib + Trametinib; first compound 8 µM) | relative viability (Vismodegib + Olaparib; first compound 0.08 µM) | relative viability (Vismodegib + Olaparib; first compound 0.253 µM) | relative viability (Vismodegib + Olaparib; first compound 0.8 µM) | relative viability (Vismodegib + Olaparib; first compound 2.53 µM) | relative viability (Vismodegib + Olaparib; first compound 8 µM) | relative viability (VE-821 + Alpelisib; first compound 0.08 µM) | relative viability (VE-821 + Alpelisib; first compound 0.253 µM) | relative viability (VE-821 + Alpelisib; first compound 0.8 µM) | relative viability (VE-821 + Alpelisib; first compound 2.53 µM) | relative viability (VE-821 + Alpelisib; first compound 8 µM)
1 | NCI-H838 | 1 | 0.803 | 0.873 | 0.446 | 0.406 | 0.536 | 0.488 | 0.535 | 0.5 | 0.624 | 0.791 | 0.71 | 0.777 | 0.757 | 0.778 | 1.1 | 0.955 | 0.911 | 0.966 | 0.907
2 | NCI-H1355 | 0.939 | 0.898 | 1.01 | 0.902 | 0.863 | 0.47 | 0.417 | 0.392 | 0.39 | 0.406 | 0.721 | 0.716 | 0.781 | 0.807 | 0.722 | 0.911 | 0.803 | 0.562 | 0.8 | 0.531
3 | NCI-H1395 |  | 0.879 | 1.16 | 0.777 | 0.944 | 0.851 | 0.958 | 0.878 | 0.921 | 1.1 | 0.467 | 0.553 | 0.494 | 0.468 | 0.491 | 1.46 | 1.08 | 0.705 | 1.14 | 0.659
4 | NCI-H1437 | 0.976 | 0.883 | 0.926 | 0.695 | 0.57 | 0.462 | 0.485 | 0.493 | 0.535 | 0.536 | 0.633 | 0.607 | 0.653 | 0.63 | 0.598 | 1.02 | 0.901 | 0.693 | 0.993 | 0.705
5 | NCI-H1651 | 0.958 | 0.92 | 0.884 | 0.767 | 0.903 | 0.813 | 0.822 | 0.81 | 0.815 | 0.84 | 0.176 | 0.192 | 0.188 | 0.182 | 0.204 | 1.09 | 1.08 | 0.702 | 1.01 | 0.849
6 | NCI-H1666 | 0.584 | 0.629 | 0.738 | 0.844 | 0.656 | 0.816 | 0.852 | 0.836 | 0.899 | 0.904 | 0.679 | 0.747 | 0.727 | 0.732 | 0.749 | 1.03 | 1.02 | 0.887 | 0.926 | 0.58
7 | NCI-H1734 | 1.09 | 1 | 1.21 | 0.87 | 0.936 | 0.627 | 0.566 | 0.636 | 0.689 | 0.817 | 0.574 | 0.515 | 0.605 | 0.59 | 0.672 | 0.804 | 0.745 | 0.468 | 0.758 | 0.553
8 | NCI-H1755 | 1.05 | 1.02 | 1.04 | 0.977 | 0.722 | 0.82 | 0.765 | 0.78 | 0.709 | 0.834 | 0.863 | 0.884 | 0.897 | 0.843 | 0.852 | 1.01 | 0.887 | 0.622 | 0.946 | 0.62
9 | NCI-H1792 | 0.936 | 0.831 | 0.846 | 0.845 | 0.824 | 0.392 | 0.447 | 0.361 | 0.376 | 0.398 | 0.381 | 0.412 | 0.527 | 0.349 | 0.376 | 0.846 | 0.919 | 0.584 | 0.587 | 0.681
10 | NCI-H1793 | 0.647 | 0.665 | 0.905 | 0.896 | 0.493 |  | 0.366 | 0.479 | 0.409 | 0.413 |  | 0.907 | 1.11 | 0.917 | 0.884 | 0.689 | 0.681 | 0.497 | 0.727 | 0.687
11 | NCI-H1915 | 0.973 | 1 | 0.927 | 0.999 | 0.798 | 0.295 | 0.282 | 0.303 | 0.303 | 0.335 | 0.276 | 0.256 | 0.244 | 0.273 | 0.232 | 1.13 | 1.03 | 1.06 | 1.16 | 0.941
12 | NCI-H1944 | 0.823 | 0.903 | 0.798 | 0.729 | 0.815 | 0.386 | 0.395 | 0.425 |  | 0.399 | 0.414 | 0.404 | 0.398 |  | 0.441 | 0.954 | 0.804 | 0.53 | 0.885 | 0.452
13 | NCI-H1975 | 0.952 | 0.955 | 0.831 | 0.71 | 0.858 | 0.32 | 0.24 | 0.374 | 0.357 | 0.331 | 0.736 | 0.788 | 0.788 | 0.83 | 0.791 | 0.621 | 0.598 | 0.46 | 0.534 | 0.406
14 | NCI-H1993 | 0.821 | 0.696 | 0.977 | 0.863 | 0.78 | 0.508 | 0.607 | 0.549 | 0.438 | 0.492 | 0.9 | 1.03 | 1.03 | 1 | 0.963 | 0.704 | 0.757 | 0.655 | 0.702 | 0.633
15 | NCI-H2009 | 1.05 | 0.997 | 1.09 | 0.737 | 0.633 | 0.313 | 0.321 | 0.309 | 0.291 | 0.331 | 0.679 | 0.655 | 0.699 | 0.662 | 0.724 | 1.11 | 1.18 | 1.12 | 1.19 | 1.28
16 | NCI-H2023 | 0.921 | 0.693 | 1.75 | 0.807 | 0.728 | 0.568 | 0.538 | 0.605 | 0.47 | 0.498 | 0.496 | 0.448 | 0.519 | 0.44 | 0.541 | 0.748 | 0.588 | 0.295 | 0.547 | 0.372
